Measured values: ChEMBL document CHEMBL1157539, “Thousands of chemical starting points for antimalarial lead identification” (Nature, 2010)

Each compound was assayed on Plasmodium falciparum (assay: GSK_TCMDC: Inhibition of Plasmodium falciparum 3D7 in whole erythrocytes, using parasite LDH activity as an index of growth.). Conditions: Plasmodium falciparum, 3D7.
Type: functional, organism-based

| Structure (SMILES) | XC50 |
| --- | --- |
| COc1cc(/C=N/Nc2nc(Nc3ccccc3)nc(Nc3ccccc3)n2)ccc1OCc1ccccc1[N+](=O)[O-] | 806 nM |
| CN(Cc1ccc(-c2ccc(C(F)(F)F)cc2)cc1)C(=O)Cn1c(CCc2cccc(F)c2F)nc(=O)c2ccc(N3CCN(CCN4CCCCC4)CC3)nc21 | 764 nM |
| O=C(Cn1c(CCc2cccc(F)c2F)nc(=O)c2ccccc21)N(CCN1CCCC1)Cc1ccc(-c2ccc(C(F)(F)F)cc2)cc1 | 711 nM |
| O=C(Nc1ccc(Br)c(C(F)(F)F)c1)c1cccc([N+](=O)[O-])c1 | 914 nM |
| CCN(CCCN1CCCCC1)c1cc(C)nc(Nc2cc(Br)ccc2C)n1 | 405 nM |
| Cc1c(-c2ccc(C(=O)NC3CC(C)(C)NC(C)(C)C3)cc2)[nH]c2cc(Cl)c(Cl)cc12 | 751 nM |
| O=c1nc(NCCCNCc2cc3c(Cl)cc(Cl)cc3[nH]2)[nH]c2ccsc12 | 1120 nM |
| COc1ccc2nccc([C@@H](O)CN3CCC(NCc4cc5ccc(C#N)cc5[nH]4)CC3)c2c1 | 95 nM |
| c1cc(CN2CCC(CCN3CCCCC3)CC2)cc(-c2csc(-c3nc4ccccc4[nH]3)c2)c1 | 142 nM |
| COc1ccc2nc3cc(Cl)ccc3c(NCCCO)c2c1 | 783 nM |
| COc1cccc2cc(C(=O)N[C@@H](CC(C)C)C(=O)N[C@H](C=NN3CCOC3=O)Cc3ccccc3)oc12 | 686 nM |
| CCc1c(CCNCCCCCNCCc2ccc(OC)c(OC)c2CC)ccc(OC)c1OC | 1110 nM |
| COc1ccc(/C=C/C(=O)N2CCc3cc4nccc(N5CCN6CCC[C@H]6C5)c4cc32)cc1 | 642 nM |
| Cc1ccccc1C(=O)Nc1cccc(-c2nc3ncccn3c2C)c1 | 765 nM |
| CC(C)CN1C(=O)c2ccc(C(=O)Nc3nccs3)cc2C1=O | 971 nM |
| CN(CCCCNC(=O)c1cc2ccccc2[nH]1)C1CC2(CCN(C(=O)OC(C)(C)C)CC2)c2ccccc21 (centres undefined) | 928 nM |
| Cc1cc(C(F)(F)F)nn1-c1ccc(NC(=O)c2ccco2)cc1 | 734 nM |
| O=C(Nc1ccccc1)OCCOc1ccc(CC2SC(=O)NC2=O)cc1 (centres undefined) | 371 nM |
| C/N=C(/Nc1c(Cl)cccc1Cl)N(C)C | 820 nM |
| CC(=O)Nc1cccc(C(=O)Nc2ccc(-c3cccc(-c4nc5cc(F)ccc5[nH]4)c3)cc2)c1 | 633 nM |
| Oc1ccc(CCNc2nc(NCc3cccc(OCc4cccc(F)c4)c3)nc(N3CCNCC3)n2)cc1 | 1340 nM |
| Cc1cc(-c2ccc3c(c2)CCN(CCC2CCC(NC(=O)/C=C/c4cccc(F)c4)CC2)CC3)on1 (centres undefined) | 746 nM |
| COc1ccc(CN2C(=S)N(Cc3ccccc3)C(=O)C2CC(=O)Nc2ccccc2)cc1OC (centres undefined) | 844 nM |
| OCCNc1nc(Nc2cccc(O)c2)nc2ccccc12 | 389 nM |

| Structure (SMILES) | XC50 |
| --- | --- |
| N=C(N)NN=Cc1c[nH]c2ccc(-c3ccccc3)cc12 | 528 nM |
| O=S(=O)(NCCN1CCCC1)c1ccc(-c2cccc(CNC3Cc4ccccc4C3)c2)s1 | 746 nM |
| Cc1cc(C)cc(OCC(O)CN(Cc2cc(Cl)cc(Cl)c2)C(=O)Nc2ccccc2Cl)c1 (centres undefined) | 944 nM |
| Cc1cccc2nc(-c3ccc(-c4ccc(NC(=O)Nc5ccc(Cl)cc5)cc4)s3)[nH]c12 | 152 nM |
| COc1ccc2nccc([C@@H](O)CN3CCC(NC(=O)/C=C/c4cccc(NC(C)=O)c4)CC3)c2c1 | 963 nM |
| CNC(=O)c1cc(F)c(F)cc1Nc1nc(Nc2cccc(CS(C)(=O)=O)c2)ncc1Cl | 1020 nM |
| O=C(Nc1ccc(OC2CCN(Cc3ccsc3)C2)c(Cl)c1)c1ccco1 (centres undefined) | 602 nM |
| Cc1cc(OCCCNc2nc(NCCc3ccc(O)cc3)nc(N3CCNCC3)n2)c(Cl)c(C)c1Cl | 956 nM |
| CC(C)CCN(Cc1cncn1Cc1cccc(C(F)(F)F)c1)C(=O)c1cncc(-c2ccccc2)c1 | 774 nM |
| CCNc1cc(C(=O)N[C@@H](Cc2ccccc2)[C@H](O)CNCc2cc(OC)cc(OC)c2)cc(N2CCCC2=O)c1 | 736 nM |
| COc1ccccc1N(C)CCNc1cc(C)nc(Nc2ccccc2)n1 | 1070 nM |
| CCOc1cc2c(cc1OCC)C(c1cc(OC)c(O)cc1Cl)NCC2 (centres undefined) | 748 nM |
| O=C(/C=C/c1ccc(Cl)c(Cl)c1)NCCCCCCN1CCN(C(=O)Nc2cccc(Cl)c2)CC1 | 981 nM |
| O=C1NC(c2ccccc2)C2(CCN(CC(O)COc3cccc4ncccc34)CC2)O1 (centres undefined) | 743 nM |
| O=C(Nc1ccc(-c2ccccc2)s1)N[C@H]1CCN(Cc2ccc(OCCCN3CCCCC3)cc2)C1 | 742 nM |
| COc1ccc(Nc2nc(NC3CCCC3)cc(-c3ccc(OC)cc3)n2)cc1 | 1030 nM |
| CN(C)c1ccc(CN2CCC(CNC(=O)c3cc(-c4ccccc4F)cs3)C2)cc1 (centres undefined) | 911 nM |
| Cc1ccc(OC2CCN(CCCCC3(C)C(=O)Nc4ccccc43)CC2)cc1 (centres undefined) | 743 nM |
| CN1CCN(CC(=O)Nc2ccc(-c3ccc(-c4nc5cc(C(F)(F)F)ccc5[nH]4)s3)cc2)CC1 | 569 nM |
| O=C1NC(=O)C(c2ccc(Cl)cc2)=C1Nc1cccc(S(=O)(=O)C(F)(F)F)c1 | 744 nM |
| O=C(NCCCCCN1CCC(c2c[nH]c3ccccc23)CC1)Nc1ccc(I)cc1 | 991 nM |
| NC(=O)C1CCN(Cc2cccc(-c3ccc(-c4nc5cc(C(F)(F)F)ccc5[nH]4)cc3)c2)CC1 | 610 nM |
| Cc1cc(N[C@@H](Cc2ccccc2)C(=O)NCc2cccs2)nc(NCCc2ccccn2)n1 | 1280 nM |
| CN1CCC(Oc2ccc(CN3CC[C@H](NC(=O)c4cccc(C#N)c4)C3)c3ccccc23)C1 (some centres undefined) | 804 nM |

| Structure (SMILES) | XC50 |
| --- | --- |
| COC(=O)Nc1cc(C(F)(F)F)ccc1N1CCC(CNS(=O)(=O)c2ccc(OC)cc2)CC1 | 249 nM |
| Cc1noc(-c2ccc3c(c2)CCN(CCC2CCC(NC(=O)c4cc5ccccc5[nH]4)CC2)CC3)n1 (centres undefined) | 689 nM |
| CCN(CC)CCCC(C)Nc1ccnc2ccc(-c3ccccc3)cc12 (centres undefined) | 652 nM |
| COC(=O)COc1cc(C(=O)NCCCCN2CCC(c3ccc4c(c3OC)CCCC4)CC2)ccc1-c1ccc(Cl)cc1 | 257 nM |
| CCCN1CCCN(Cc2cccc(NC(=O)c3ccc(-c4ccccc4)cc3)c2)CC1 | 1110 nM |
| CC(C)N1CCN(C(CN2CCN(CCCOc3ccc4nonc4c3)CC2)c2ccc(F)cc2)CC1 (centres undefined) | 796 nM |
| Cc1nnsc1C(=O)Nc1cccc(-c2cccc(-c3nc4cccc(C)c4[nH]3)c2)c1 | 267 nM |
| Cc1cccc2nc(-c3cccc(-c4cccc(NC(=O)c5ccoc5)c4)c3)[nH]c12 | 219 nM |
| COc1ccc(CNCc2ccc(-c3ccc(-c4nc5cc(F)ccc5[nH]4)cc3)cc2)cc1 | 249 nM |
| CC(C)(CNCc1ccc(C(F)(F)F)cc1)c1nc(-c2ccnc(N)n2)c(-c2ccc(Cl)c(O)c2)[nH]1 | 152 nM |
| Cc1cc2ncn(-c3ccnc(N4CCN(CCCN5CCCC5)CC4)n3)c2cc1C | 828 nM |
| COc1cc2nc(N3CCC(CNCc4ccc(-c5ccc(C(F)(F)F)cc5)cc4)CC3)nc(N)c2cc1OC | 86.9 nM |
| O=C1NC(c2ccc(N3CCCCCC3)cc2)Nc2ccccc21 (centres undefined) | 566 nM |
| CCOc1ccc(Br)cc1/C=C/C(=O)Nc1ccc2c(c1)CCCN(C)C2 | 1050 nM |
| CCCCc1cc(NC2CCN(C)CC2)nc(Nc2ccccc2)n1 | 658 nM |
| CCc1cn2c3c(cc(C(=O)N[C@@H](Cc4ccccc4)[C@H](O)CNC4CCCCC4)cc13)N(CC)S(=O)(=O)CC2 | 31.4 nM |
| CCn1c(C)cc(C=C2SC(=Nc3ccccc3)NC2=O)c1C | 680 nM |
| COCCNCc1cccc(C#Cc2cc3ncnc(Nc4ccc(OCc5cccc(F)c5)c(Cl)c4)c3s2)n1 | 739 nM |
| Cc1ccc(CNC(=O)[C@H](CC(C)C)Nc2cc(C)nc(NCC3CCCCC3)n2)cc1 | 926 nM |
| C[C@H](Cc1ccc(OCCCOc2ccc(C[C@@H](C)NC[C@H](O)c3cccc(Cl)c3)cc2)cc1)NC[C@H](O)c1cccc(Cl)c1 | 780 nM |
| CS(=O)(=O)N1CC2(CCN(CCC(NC(=O)NCc3ccccc3Cl)c3ccc(Cl)c(Cl)c3)CC2)c2ccccc21 (centres undefined) | 1110 nM |
| CCOC(=O)c1c(NC(NC(=O)c2ccc(C(C)(C)C)cc2)C(Cl)(Cl)Cl)sc2c1CCCC2 (centres undefined) | 809 nM |
| CCCCc1ccc(S(=O)(=O)Nc2ccc3c(c2)CCN(Cc2c[nH]c4cnccc24)CC3)cc1 | 674 nM |
| Cc1cc(N(C)C)nc(Nc2ccc(NC(=O)c3ccc(F)cc3)cc2)n1 | 709 nM |

| Structure (SMILES) | XC50 |
| --- | --- |
| CCCN(CCC)C(=O)c1cc(C(=O)N[C@@H](Cc2ccccc2)[C@H](O)CNC2CC2)cc(N2CCCCS2(=O)=O)c1 | 156 nM |
| CCOCn1c(-c2ccccc2)cc2c3c(N)nc(N)nc3ccc21 | 186 nM |
| Nc1nc(N)c2c(ccc3c2ccn3Cc2ccccc2)n1 | 3.2 nM |
| O=C(/C=C/c1ccc(Cl)c(Cl)c1)NCCCCCCN1CCCN(C(=O)Nc2cc(F)cc(F)c2)CC1 | 708 nM |
| CCNc1cc(C(=O)N[C@@H](Cc2ccccc2)[C@H](O)CN[C@@H]2CCc3ccccc32)cc(N2CCCCS2(=O)=O)c1 | 555 nM |
| CS(=O)(=O)c1ccc2c(c1)CCN(CCC1CCC(NC(=O)C(=Cc3cccc(C#N)c3)c3ccc(-c4ccccc4)cc3)CC1)CC2 (centres undefined) | 839 nM |
| Cc1cc(-c2cccc(CNCCc3ccc(Cl)cc3)c2)cnc1N | 1100 nM |
| Cc1cc(-c2ccc(CNCc3ccc(F)cc3)cc2)ccc1S(=O)(=O)NCCN1CCCC1 | 719 nM |
| CC[C@H](C)CNC(=O)c1cncc(-c2ccc(CN(C)C3CCN(C)CC3)cc2)c1 | 987 nM |
| CN(C)c1cccc2c1nc(-c1ccco1)n2CCNCc1ccccc1 | 814 nM |
| CCc1cc(-c2onc(C(F)(F)F)c2-c2ccccc2)c(O)cc1OC | 787 nM |
| COc1cc(NC(=O)c2nn(CCCN3CCC4(CC3)C(=O)NCN4c3ccccc3)cc2-c2ccc(Cl)c(Cl)c2)cc(OC)c1OC | 753 nM |
| Cc1ccc(C)c(N2CCN(Cc3ccccc3O)CC2)c1 | 940 nM |
| Cc1ccc(-n2ncc(C(=O)Nc3cc(Cl)cc(Cl)c3)c2C2CCNCC2)cc1C | 551 nM |
| CCN(CC)c1ccc(C=CC(=O)NCCN2CCC(N(C)C3CCCCC3C)CC2)cc1 (centres undefined) | 965 nM |
| Nc1nccc2ccc(-c3cccc(OCc4ccccc4)c3)cc12 | 289 nM |
| CC(C)(C)OC(=O)NCc1ccc(Nc2nnc(-c3ccc(OCC(=O)NC[C@@H]4CC[C@H]5C[C@@H]4C5(C)C)c([N+](=O)[O-])c3)o2)cc1 | 911 nM |
| COCCn1c(-c2cccc(Cl)c2)nn(-c2ccc([N+](=O)[O-])cc2C#N)c1=S | 178 nM |
| CCCCCCn1c(Sc2ccc(C#N)c([N+](=O)[O-])c2)nnc1-c1ccc(OC)cc1 | 849 nM |
| O=C(NCCCCCN1CCC(c2c[nH]c3ccccc23)CC1)Nc1cccc(C(F)(F)F)c1 | 1000 nM |
| CN=C(NC)c1cccc(NC(=O)C=Cc2ccc(C=CC(=O)Nc3cccc(C(=NC)NC)c3)cc2)c1 | 164 nM |
| CC(OC(=O)c1ccc(C(=O)NCC2CC2)cc1)C(C)(C)C (centres undefined) | 791 nM |
